ChEMBL document CHEMBL5030546, “Synthesis of thiocolchicine amine derivatives and evaluation of their antiproliferative activity” (Bioorg Med Chem Lett, 2021)

What was measured:
BALB/3T3 = assay: Cytotoxicity against mouse BALB/3T3 cells assessed as reduction in cell viability incubated for 72 hrs by SRB assay; format: ADME, cell-based; conditions: BALB/3T3, 72 h
cells = format: functional, cell-based; conditions: Homo sapiens, LoVo/DX, 72 h
Description: Antiproliferative activity against human Lovo/DX cells assessed as inhibition of cell proliferation incubated for 72 hrs by SRB assay

MCF7 = assay: cells; format: functional, cell-based; conditions: Homo sapiens, MCF7, 72 h
Description: Antiproliferative activity against human MCF7 cells assessed as inhibition of cell proliferation incubated for 72 hrs by SRB assay

LoVo = assay: cells; format: functional, cell-based; conditions: Homo sapiens, 72 h
Description: Antiproliferative activity against human LoVo cells assessed as inhibition of cell proliferation incubated for 72 hrs by SRB assay

[1] = Resistance index, ratio of IC50 for human LoVo/DX cells to IC50 for human LoVo cells; format: functional
A549 = assay: cells; format: functional, cell-based; conditions: Homo sapiens, A549, 72 h
Description: Antiproliferative activity against human A549 cells assessed as inhibition of cell proliferation incubated for 72 hrs by SRB assay

[2] = Selectivity index, ratio of IC50 for mouse BALB/3T3 cells to IC50 for human A549 cells; format: toxicity; conditions: BALB/3T3 cells versus A549 cells, read-out: Ratio IC50
[3] = Selectivity index, ratio of IC50 for mouse BALB/3T3 cells to IC50 for human LoVo/DX cells; format: toxicity; conditions: BALB/3T3 cells versus LoVo/DX cells, read-out: Ratio IC50
[4] = Selectivity index, ratio of IC50 for mouse BALB/3T3 cells to IC50 for human LoVo cells; format: toxicity; conditions: BALB/3T3 cells versus LoVo cells, read-out: Ratio IC50
[5] = Selectivity index, ratio of IC50 for mouse BALB/3T3 cells to IC50 for human MCF7 cells; format: toxicity; conditions: BALB/3T3 cells versus MCF7 cells, read-out: Ratio IC50

Row | IC50 (cells) [nM] | IC50 (MCF7) [nM] | IC50 (LoVo) [nM] | IC50 (A549) [nM] | SMILES | IC50 (BALB/3T3) [nM] | Ratio IC50 [1] | selectivity ratio [2] | selectivity ratio [3] | selectivity ratio [4] | selectivity ratio [5]
1 | 33.2 | 11.2 | 7.6 | 9.6 | COc1cc2c(c(OC)c1OC)-c1ccc(SC)c(=O)cc1[C@@H](NCc1ccc(F)cc1)CC2 | 11.7 | 4.4 | – | – | – | –
2 | 70.2 | 17.8 | 12 | 11 | CCCC(C)CN[C@H]1CCc2cc(OC)c(OC)c(OC)c2-c2ccc(SC)c(=O)cc21 (stereo partly specified) | 78.5 | 5.8 | – | – | – | –
3 | 56.2 | 9.7 | 7.8 | 10.9 | COc1cc2c(c(OC)c1OC)-c1ccc(SC)c(=O)cc1[C@@H](NCc1ccncc1)CC2 | 10.9 | 7.2 | – | – | – | –
4 | 41.7 | 10.3 | 9.4 | 9.3 | COc1cc2c(c(OC)c1OC)-c1ccc(SC)c(=O)cc1[C@@H](NCc1ccccc1O)CC2 | 8.8 | 4.5 | – | – | – | –
5 | 77.8 | 92.7 | 52.8 | 89.5 | CCCCCN[C@H]1CCc2cc(OC)c(OC)c(OC)c2-c2ccc(SC)c(=O)cc21 | 99.4 | 1.5 | – | – | – | –
6 | 85.6 | 8.2 | 53.3 | 7.1 | COc1cc(CN[C@H]2CCc3cc(OC)c(OC)c(OC)c3-c3ccc(SC)c(=O)cc32)ccc1O | 385 | 1.8 | 54.2 | 4.5 | 7.2 | 46.9
7 | 17.9 | 12.2 | 8.8 | 10.9 | CCCCN[C@H]1CCc2cc(OC)c(OC)c(OC)c2-c2ccc(SC)c(=O)cc21 | 11.7 | 2 | – | – | – | –
8 | 69.4 | 10.3 | 8.8 | 10.8 | COc1ccc(CN[C@H]2CCc3cc(OC)c(OC)c(OC)c3-c3ccc(SC)c(=O)cc32)cc1O | 10.8 | 7.9 | – | – | – | –
9 | 64.9 | 73.4 | 37 | 70.5 | COc1cc2c(c(OC)c1OC)-c1ccc(SC)c(=O)cc1[C@@H](NCc1ccc(Cl)cc1)CC2 | 88.2 | 1.8 | – | – | – | –
10 | 234 | 84.2 | 72.4 | 101 | COc1cc2c(c(OC)c1OC)-c1ccc(SC)c(=O)cc1[C@@H](NCc1ccc(I)cc1)CC2 | 119 | 3.2 | – | – | – | –
11 | 66.9 | 11.4 | 10.7 | 10.7 | COc1cc2c(c(OC)c1OC)-c1ccc(SC)c(=O)cc1[C@@H](NCCc1ccccc1)CC2 | 61.2 | 6.2 | – | – | – | –
12 | 10.2 | 11.3 | 8.5 | 10.5 | COc1cc2c(c(OC)c1OC)-c1ccc(SC)c(=O)cc1[C@@H](NCC(C)C)CC2 | 11 | 1.2 | – | – | – | –
13 | 13.9 | 10.3 | 7.9 | 9.6 | COc1cc2c(c(OC)c1OC)-c1ccc(SC)c(=O)cc1[C@@H](NCc1ccccc1)CC2 | 9.8 | 1.8 | – | – | – | –
14 | 31.1 | 12 | 8.5 | 11.6 | CCCN[C@H]1CCc2cc(OC)c(OC)c(OC)c2-c2ccc(SC)c(=O)cc21 | 14.3 | 3.7 | – | – | – | –
15 | 72.7 | 109 | 83 | 104 | CCCCCCN[C@H]1CCc2cc(OC)c(OC)c(OC)c2-c2ccc(SC)c(=O)cc21 | 107 | 0.9 | – | – | – | –
16 | 693 | 1120 | 903 | 1010 | CCCCCCCCN[C@H]1CCc2cc(OC)c(OC)c(OC)c2-c2ccc(SC)c(=O)cc21 | 1040 | 0.8 | – | – | – | –
17 | 9.4 | 12 | 8.4 | 13.1 | COc1cc2c(c(OC)c1OC)-c1ccc(SC)c(=O)cc1[C@@H](NCCC(C)C)CC2 | 13.3 | 1 | – | – | – | –
18 | 210 | 102 | 79.2 | 95 | COc1cc2c(c(OC)c1OC)-c1ccc(SC)c(=O)cc1[C@@H](NC/C=C/c1ccccc1)CC2 | 98.6 | 2.7 | – | – | – | –
19 | 400 | 7.7 | 27.9 | 47.3 | COc1cc2c(c(OC)c1OC)-c1ccc(SC)c(=O)cc1[C@@H](NCc1cccc(CN[C@H]3CCc4cc(OC)c(OC)c(OC)c4-c4ccc(SC)c(=O)cc43)n1)CC2 | 50.3 | 14.3 | – | – | – | –
20 | 52.3 | 100 | 47.6 | 83.4 | COc1cc2c(c(OC)c1OC)-c1ccc(SC)c(=O)cc1[C@@H](NCc1ccc(C)cc1)CC2 | 85.4 | 1.1 | – | – | – | –
21 | 1980 | 719 | 453 | 152 | CCCCCCCCCCCCN[C@H]1CCc2cc(OC)c(OC)c(OC)c2-c2ccc(SC)c(=O)cc21 | 1070 | 4.4 | – | – | – | –
22 | 3960 | 146 | 71 | 149 | COc1cccc2c1C(=O)c1c(O)c3c(c(O)c1C2=O)C[C@@](O)(C(=O)CO)C[C@@H]3O[C@H]1C[C@H](N)[C@H](O)[C@H](C)O1 [DOXORUBICIN] | 315 | 56 | – | – | – | –

Row | SMILES | IC50 (cells) [nM] | IC50 (MCF7) [nM] | IC50 (LoVo) [nM] | IC50 (A549) [nM] | IC50 (BALB/3T3) [nM] | Ratio IC50 [1] | selectivity ratio [2] | selectivity ratio [3] | selectivity ratio [4] | selectivity ratio [5]
23 | CCN[C@H]1CCc2cc(OC)c(OC)c(OC)c2-c2ccc(SC)c(=O)cc21 | 54.9 | 10.3 | 6.5 | 10.8 | 10.2 | 8.5 | – | – | – | –
24 | COc1cc2c(c(OC)c1OC)-c1ccc(OC)c(=O)cc1[C@@H](NC(C)=O)CC2 [COLCHICINE] | 967 | – | 12.7 | 19.3 | 82.3 | – | – | – | – | –
